The subject of series [1] is rabbit vWF A1 domain (SEQ ID NO 6). Put plainly: dot blot KD determination, rabbit vWF A1 domain. The series is classed as binding. Conditions: for Kd: rRdY minimers, 8 point titration 0-300 nM.
Procedure: A 12 point protein titration was used in the dot blot assay (300 nM, 100 nM, 30 nM, 10 nM, 3 nM, 1 nM, 300 pM, 100 pM, 30 pM, 10 pM, 3 pM, 0 pM) in 1×DPBS plus 0.1 mg/mL BSA at room temperature for 30 minutes.
Series [2] has as its target T1, human vWF A1 domain (SEQ ID NO 5) (Homo sapiens, UniProt P04275, T1381A). Description: dot blot KD determination, human vWF A1 domain.
Procedure: For KD determination, aptamers transcripts were purified on 10% denaturing polyacrylamide gels, 5′ end labeled with γ-^32P ATP.
For KD determination, aptamers were purified on denaturing polyacrylamide gels and 5′-end labeled with γ-^32P ATP. A 6 point protein titration of human vWF A1 domain (SEQ ID NO 5) was used in the dot blot assay (333 nM, 100 nM, 33 nM, 10 nM, 3 nM, 0 nM) in 1×DPBS plus 0.1 mg/mL BSA at room temperature for 30 minutes. KD values were calculated by fitting the equation y=(max/(1+K/protein))+yint using KaleidaGraph (KaleidaGraph v. 3.51, Synergy Software).
KD values were calculated by fitting the equation y=(max/(1+K/protein))+yint using KaleidaGraph (KaleidaGraph v. 3.51, Synergy Software).
All minimer sequences were transcribed, gel-purified on 15% denaturing polyacrylamide gels, 5-^32 end-labeled with γ^32P ATP, and then desalted using two Centri-Spin 10 columns (Princeton Separations Cat. #CS-101, Adelphia, N.J.). For KD determination, minimer transcripts were tested for direct binding to full length human vWF (SEQ ID NO 7), human vWF A1 domain (SEQ ID NO 5), and rabbit vWF A1 domain (SEQ ID NO 6) using an 8 point protein titration from 0-300 nM (3 fold dilutions) in 1× Dulbecco's PBS containing 0.1 mg/mL BSA (in a final volume of 50 uL) for 30 minutes at room temperature and then applied to a nitrocellulose and nylon filter sandwich in a dot blot apparatus (Schleicher and Schuell, Keene, N.H.). KD values were calculated by fitting the equation y=(max/(1+K/protein))+yint using KaleidaGraph (KaleidaGraph v. 3.51, Synergy Software).
All minimer DNA sequences were chemically synthesized, 5-^32P end-labeled with γ-^32P ATP, and then desalted using two Centri-Spin 10 columns (Princeton Separations, Cat. #CS-101, Adelphia, N.J.). […] KD values were calculated by fitting the equation y=(max/(1+K/protein))+yint using KaleidaGraph (KaleidaGraph v. 3.51, Synergy Software).
In series [3] the test system is full length human vWF binding to lyophilized platelets. Description: Full length human von Willebrand Factor platelet binding assay (FACS). It counts as cell-based. Conditions: 5 nM full length human vWF, lyophilized platelets, botrocetin; for IC50: read-out: Inhibition of full length hVWF binding in FACS assay, Average IC50; for Inhibition of full length hVWF binding in FACS assay, IC50 range: both bounds in nM. The procedure, abridged: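 Aptamer titrations (0.1–1000 nM) pre-incubated with 5 nM full-length human vWF, then added to lyophilized platelets plus botrocetin for 15 min at 37 °C in PBS/0.5% BSA. Bound vWF detected by anti-vWF then FITC secondary antibody via flow cytometry MFI; % inhibition versus no-aptamer binding fitted for IC50.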
For orientation: Flow cytometry measures light scatter and fluorescence of single cells or particles in a stream.

The subject of series [4] is rabbit vWF domain A1 binding to lyophilized platelets. Put plainly: Rabbit von Willebrand Factor domain A1 platelet binding assay (FACS). It counts as cell-based. Particulars: 4 nM rabbit A1 vWF, lyophilized platelets, botrocetin. As for the experimental part:
Botrocetin induces the binding of the A1 domain of vWF to platelets, as well as the full length protein. It was determined by the inventors that 6-Histidine-tagged rabbit A1 domain vWF purified protein could be induced to bind to human lyophilized platelets with botrocetin. Rabbit A1 binding to platelets is measured with an anti-poly-His antibody followed by incubation with a phycoerythrin conjugated secondary antibody. The degree of binding can be quantified by flow cytometric analysis. The ability of aptamers to block the binding of rabbit A1 to human fixed platelets was correlated with decreased fluorescence signal.
The ability of aptamers of the invention to block rabbit vWF domain A1 binding to lyophilized platelets was also assessed by flow cytometric analysis. Titrations of aptamers (zero, 0.1 nM to 1000 nM) were preincubated briefly with 4 nM of rabbit A1 vWF in FACS buffer (PBS plus 0.5% bovine serum albumin) at room temperature in a volume of 50 uL. Another 50 uL containing 5 uL of lyophilized platelets plus 1 uL of 0.1 U/uL of botrocetin in FACS buffer was added to aptamer/vWF. This reaction was allowed to proceed for 15 minutes at 37 degrees C. after which 200 uL of FACS buffer was added. Platelets were collected by a 6 minute spin at 1470 RCF and the supernatant was discarded. The pellets were resuspended in 100 uL of FACS buffer containing a 1:200 dilution of anti-Penta-HIS-biotin conjugate antibody and were incubated at room temperature for 30 minutes. After the dilution with 200 uL of FACS buffer, the platelets were spun at 1470 RCF for 6 minutes, and the supernatant was discarded. The pellets were resuspended in a 1:100 solution of anti-IgG-PE antibody and were incubated in the dark for 30 minutes at room temperature. The entire 100 uL was diluted into 200 uL of FACS buffer and analyzed immediately by flow cytometric analysis in the FACSCAN. Contaminating debris was eliminated from the analysis by drawing a gate around the population of single and aggregated platelets and collecting data from 10000 events. Median fluorescent intensity (“MedFI”) readings (which are generally equivalent to the MFI readings, described in Example 3a above, for comparative purposes) were quantified for each sample analyzed by flow cytometry. Background MedFI was subtracted from all data points. Percent inhibition was reported by calculating the percent value of binding of […] to platelets in the presence of aptamer at a given concentration relative to binding in the absence of any aptamer (see FIG. 7). IC50 values were determined by fitting the percent inhibition of vWF binding to platelets as a function of aptamer concentration to the equation: % inhibition=% inhibitionmax/(1+IC50/aptamer conc.)

The test system of series [5] is botrocetin induced platelet aggregation. Put plainly: Inhibition of botrocetin induced platelet aggregation (BIPA) in human PRP. It counts as cell-based. Conditions: botrocetin induced platelet aggregation, 6 minutes. As for the experimental part:
In platelet rich plasma isolated from fresh human blood, botrocetin induces platelet aggregation via vWF. Platelet aggregate formation can be measured optically as an increase in % light transmittance on a Chronolog Model 490-4D Aggregometer because aggregation of platelets clarifies the plasma. Aptamers of the invention were analyzed for their ability to inhibit botrocetin induced platelet aggregation (“BIPA”) in human blood. An aptamer of the invention was considered to be active if it could prevent aggregate formation for six minutes post botrocetin addition.
In order to determine the activity of aptamers on live human platelets, BIPA assays were done using freshly prepared platelet rich plasma. Blood was obtained from healthy human donors who had not taken NSAIDS for at least five days. […] Collected blood was pooled into 15 mL conical tubes and was spun at 200 g for 20 minutes. The turbid, yellow layer of platelet rich plasma (“PRP”) was withdrawn from the tubes, pooled, and set aside at room temperature. The remaining blood was spun at 2500 g for ten minutes. The clarified layer of plasma, known as platelet poor plasma (“PPP”), was withdrawn and set aside at room temperature. PRP was aliquoted into cuvettes containing stir bars at a volume of 470 uL. A sample of 500 uL of PPP was aliquoted into a cuvette and placed in the PPP reference cell of the platelet aggregometer. Samples of PRP were prewarmed at 37 degrees C. in the platelet aggregometer for 3-5 minutes before being used in BIPA assays. First, the concentration of botrocetin needed to induce platelet aggregation for each individual donor was determined by titration. This concentration of botrocetin was used for the remainder of the experiment. Next, aptamer was assayed by adding titrations of aptamer (zero, 1 nM to 1000 nM) to prewarmed PRP for one minute, followed by addition of botrocetin. With platelet aggregation, an increase in amplitude of light transmission is seen (FIG. 8). The concentration at which platelet aggregation is blocked at 90% or greater after 6 minutes is reported in the final column of Table 26.

Series [6] concerns full length human vWF (SEQ ID NO 7). Description: dot blot KD determination and extent of binding, full length human vWF.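 For all read-outs here: dot blot binding of aptamers to full length human vWF across a protein titration, incubated 30 minutes at room temperature in 1x DPBS with BSA.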 Conditions: for Kd: rRdY minimers, 8 point titration 0-300 nM, read-out: Full length human vWF KD; for Full length human vWF KD: DNA 2 minimers, 9 point protein titration.
In series [7] the target is T1, human vWF A1 domain (SEQ ID NO 5). Description: 3-point dot blot screen, human vWF A1 domain. It counts as binding. Conditions: rRfY aptamers; 100 nM human vWF A1 domain; ratio of fraction bound with target to fraction bound without target. The method in brief:
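Values are ratios of aptamer fraction retained on nitrocellulose with 100 nM vWF A1 domain (human or rabbit) versus a no-protein control. Unique clones from rounds 9 and 12 pools were transcribed, desalted and 5'-32P labeled before this three-point dot blot screen.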

For series [8], the system named is rabbit vWF A1 domain (SEQ ID NO 6). Put plainly: 3-point dot blot screen, rabbit vWF A1 domain. It counts as binding. The procedure, abridged: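 Rabbit vWF A1 domain binding was screened by dot blot using three conditions: no target protein, human vWF, and rabbit vWF A1 domain at 100 nM (20 nM in the screen run twice). Radiolabeled aptamer bound to nitrocellulose was quantified, and results are expressed as the ratio of bound fraction with protein to bound fraction without protein.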

In the next series the test system is full length human vWF. Description: 3-point dot blot screen, full length human vWF. It counts as binding. Particulars: 20 nM full length human vWF, ratio of fraction of aptamer bound with target protein to fraction bound without protein. The method in brief: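 Unique aptamer clones tested twice by nitrocellulose dot blot with no protein, 20 nM full-length human vWF or 20 nM rabbit vWF A1 domain. Value is fraction of aptamer bound with target divided by fraction bound without protein.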

Where [9] appears, read: read-out: Inhibition of rabbit VWF A1 domain binding in FACS assay, Average IC50.
Where [10] appears, read: DNA 2 minimers, 9 point protein titration.
[11] abbreviates: read-out: human A1 KD, rRfY aptamers, 8 point titration of human vWF A1 domain.

Read-outs that look alike come from different tables or passages of the source. Oligonucleotides are written 5' to 3', each unit as a sugar letter and its base; * is a phosphorothioate linkage, no mark a phosphodiester; rarer units and linkages stand in square brackets, end groups in braces. Plain capitals give the bases only. d = 2'-deoxy (DNA); r = 2'-OH (RNA); f = 2'-fluoro

As usually defined, the IC50 is the concentration at which inhibition is half-maximal. In general, Kd refers to the equilibrium constant for the complex coming apart.

T1 sequence (P04275 with tags, fused parts or gaps T1381A): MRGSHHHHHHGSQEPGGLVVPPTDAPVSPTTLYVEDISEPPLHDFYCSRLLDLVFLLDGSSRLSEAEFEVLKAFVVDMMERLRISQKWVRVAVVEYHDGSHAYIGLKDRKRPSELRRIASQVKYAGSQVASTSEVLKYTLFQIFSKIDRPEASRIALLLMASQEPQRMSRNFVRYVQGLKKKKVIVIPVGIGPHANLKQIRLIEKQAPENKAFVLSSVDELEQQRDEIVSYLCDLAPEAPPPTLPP
rabbit vWF domain A1 binding to lyophilized platelets, sequence (as listed by the source): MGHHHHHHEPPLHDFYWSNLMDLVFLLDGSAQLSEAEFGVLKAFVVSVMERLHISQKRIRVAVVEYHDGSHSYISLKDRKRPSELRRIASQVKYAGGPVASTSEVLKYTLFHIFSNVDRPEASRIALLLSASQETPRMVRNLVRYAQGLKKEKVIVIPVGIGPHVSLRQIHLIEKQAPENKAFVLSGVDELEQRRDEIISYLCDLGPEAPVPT
rabbit vWF A1 domain (SEQ ID NO 6), sequence (as listed by the source): as above

As for “CCAGCGGAATGAGAATGCTGATGGATTGCTCAGGTCTGCTGG (DNA, backbone not given here) [SEQ ID NO 204]”, in series [1] (DNA 1 minimers), the “Rabbit vWF A1 domain KD” value is “No binding”. Further, the “Human vWF A1 domain KD” value in series [2] (DNA 1 minimers, competition dot blot, 10 nM protein) is recorded as “No binding”.
With “GGACCACCCUCGCAACGAGAGUUGUGCCGCUGGUCC (rGrGrAfCfCrAfCfCfCfUfCrGfCrArAfCrGrArGrArGfUfUrGfUrGfCfCrGfCfUrGrGfUfCfC) [SEQ ID NO 174, minimized rRfY aptamer]”, the values for the IC50 in series [3] and in series [4] (setting [9]) were 6.6 nM and 6.8 nM, respectively. In addition, the “≦200 nM aptamer gives >90% blocking in BIPA at 6 minutes” value (“≦200 nM aptamer gives >90% blocking” for short) in [5] is “yes”.
Consider “GGAGCCACACGACATTGGCGCGAGAGCGCATGGCTCC (chemistry not given here) [SEQ ID NO 201, minimized rRdY aptamer]”, for which the IC50 in [3] was found to be 150 nM. In addition, the “≦200 nM aptamer gives >90% blocking” value in [5] is given as “no activity”.
In the case of “GGCCACACGACATTGGCGGGCGAGAGCCACGCATGGCC (rGrGdCdCrAdCrAdCrGrAdCrAdTdTrGrGdCrGrGrGdCrGrArGrArGdCdCrAdCrGdCrAdTrGrGdCdC) [SEQ ID NO 198]”, the Kd in series [6] stood at 3 ± 0.6 nM; in series [1], 11 ± 2 nM; in series [2] (read-out: Human vWF A1 domain KD, rRdY minimers, 8 point titration 0-300 nM), 5 ± 2 nM. Besides, the IC50 in series [3] stood at 20.6 nM; in series [4] (setting [9]), 12.6 nM.
On to “GGCGTGCAGTGCCT-[PEG]-AGGCCGTGCGG-[PEG]-CCGTCACGCC-3T (DNA GGCGTGCAGTGCCTAGGCCGTGCGGCCGTCACGCCT; chemistry not fully specified) [ARC1031, minimized DNA aptamer]”, for which, in [6], the “Full length human vWF KD” value is on record as “No binding”. Besides, in series [1] (setting [10]), the “Rabbit vWF A1 domain KD” value is “No binding”. In addition, the “Inhibition of full length hVWF binding in FACS assay, IC50 range” value (“Inhibition of full length hVWF binding” below) in series [3] is “no activity”.
For the molecule “GGCGTGCAGTGCCTATTCTAGGCCGTGCGG-[PEG]-CCGTCACGCC-3T (DNA GGCGTGCAGTGCCTATTCTAGGCCGTGCGGCCGTCACGCCT; chemistry not fully specified) [ARC1030, minimized DNA aptamer]”, the “Full length human vWF KD” value in series [6] was “No binding”. Besides, the “Rabbit vWF A1 domain KD” value in [1] (setting [10]) is on record as “No binding”. The “Inhibition of full length hVWF binding” value in series [3] was “no activity”.
Turning to “GGGACGGGGTGGGTAGACGGCGGGTATGTCCC (rGrGrGrAdCrGrGrGrGdTrGrGrGdTrArGrAdCrGrGdCrGrGrGdTrAdTrGdTdCdCdC) [SEQ ID NO 183, minimized rRdY aptamer]”, the Kd in series [6] was 10 ± 5 nM; in series [1], 14 ± 7 nM. Further, in series [3], the IC50 is 26.5 nM.

B1: AMX201.B1: rRfY aptamer clone (nucleic acid)
chain: rGrGrArGfCrGfCrAfCfUfCrArGfCfCrAfCrArGrArGfCfCfCfUrGrArGfUrGfUrAfUrGrAfUfCrGfCfCfUrArGrAfUfCfUrAfUfCrGrAfUrGfCfUfUfUfUfUfCrGrAfCfCfUfCfUfCfUrGfCfUrArGfC
In the case of B1, the “Inhibition of full length hVWF binding” value in series [3] was “no activity”. Moreover, in [5], the “≦200 nM aptamer gives >90% blocking” value was “yes”. The Kd in series [2] (setting [11]) was 19 nM.

B2: AMX201.H3: rRfY aptamer clone (nucleic acid)
chain: rGrGrArGfCrGfCrAfCfUfCrArGfCfCrAfCfUrArAfCrGrGfUfUrGrAfUfCfUfCrArGrGrAfCfUrArArAfUrArGfUfCrArAfCrArArGrGrAfUrGfCrGfUfUfUfCrGrAfCfCfUfCfUfCfUrGfCfUrArGfC
Turning to B2, in series [7], the “Screen- Human/No Protein” value is given as 1.88. Moreover, in series [8] (rRfY aptamers, 100 nM rabbit vWF A1 domain, ratio of fraction bound with target to without), the “Screen- Rabbit/No Protein” value worked out at 1.89. Moreover, the “Inhibition of full length hVWF binding” value in series [3] is “no activity”. In addition, the “≦200 nM aptamer gives >90% blocking” value in series [5] is recorded as “yes”. In addition, the Kd in series [2] (setting [11]) worked out at 90 nM.

B3: AMX236.A12: DNA SELEX 2 aptamer clone (nucleic acid)
chain: CTACCTACGATCTGACTAGCTTGGTAGCGACTCTGTGGAGCTGCGGTTTGGTCGACGTCAGCTTACTCTCATGTAGTTCC
modifications: DNA, backbone not given here
notes: DNA SELEX 2 aptamer clone
Turning to B3, in series [8] (3-point dot blot screen, 20 nM rabbit vWF A1 domain, ratio of fraction of aptamer bound with target protein to fraction bound without protein), the “Screen Rabbit/No Protein” value is 2.41. The “Screen- Human/No Protein” value with full length human vWF was determined as 2.64. For the same molecule, the IC50 in [3] stood at 10.7 nM; in series [4] (both bounds in nM, read-out: Inhibition of rabbit VWF A1 domain binding in FACS assay, IC50 range), 14.5 nM.

The values are drawn from US7998940B2, “Aptamers to von Willebrand factor and their use as thrombotic disease therapeutics” (Archemix Corp., priority 2004, dated 2011).
